According to US20190134039A1, “ANTIVIRAL JAK INHIBITORS USEFUL IN TREATING OR PREVENTING RETROVIRAL AND OTHER VIRAL INFECTIONS” (EMORY UNIVERSITY, priority 2011, published 2019):
Like-named read-outs stand apart in the source and are kept apart here.

Columns and labels:
[1] = test system: PHA+IL-2 stimulated primary human lymphocytes; experiment: Proliferation and viability of PHA+IL-2 stimulated primary human lymphocytes; assay type: cell-based; conditions: PHA+IL-2 stimulated lymphocytes, 5 days
Protocol: (§1) The effect of various Jak inhibitors on proliferation and viability of PHA or PHA+IL-2 stimulated primary human lymphocytes was evaluated using the techniques described above.
(§2) For all experiments, cells were incubated with media alone or drug-containing medium for 5 days prior to assessment of cell count and viability. Data are mean and standard deviations for at least three independent experiments conducted with at least 4 pooled donors, and duplicates within each experiment.

PBM cells = experiment: cells; conditions: Homo sapiens, PBMC, read-out: IC50 in PBM cells *Propidium Iodide assay
HIV-1 containing K65R = experiment: microbe, parasite or virus in culture; assay type: cell-based
PHA + IL-2 PBM cells = experiment: cells; conditions: Homo sapiens, PBMC, read-out: IC50 in PHA + IL-2 PBM cells *MTT Assay
PHA stimulated PBM cells = experiment: cells; conditions: Homo sapiens, PBMC, read-out: IC50 in PHA stimulated PBM cells *MTT Assay
pSTAT1 = experiment: cells
[2] = test system: HIV-1 containing A62V/V75I/F77L/F116Y/Q151M; experiment: microbe, parasite or virus in culture; assay type: cell-based
Mφ = experiment: cells; conditions: Homo sapiens, read-out: IC50 in Mφ *MTT Assay
latent HIV-1 [3] = experiment: Reactivation of latent HIV-1, primary central memory-based T cell latency model; conditions: concentrations found during steady-state or Cmax in vivo
HIV-1LAI = experiment: microbe, parasite or virus in culture; conditions: Human immunodeficiency virus 1, PBMC, in Homo sapiens
Description: PBM cells were isolated as follows: Lymphocytes were isolated from buffy coats derived from healthy donors obtained from Life South Laboratories (Dunwoody, Ga.). Activated lymphocytes were maintained for 72 hrs in medium that was supplemented with […] phytohemagglutinin (PHA) (Cape Cod associates, East Falmouth, Mass.). Media was comprised of RPMI media supplemented with 20% fetal calf serum, 1% penicillin/streptomyocin and 2% L-glutamine (Sigma Aldrich, San Jose, Calif.).
PBM cell infections: Testing was performed in duplicate with at least 3 independent assays. Cells were incubated in RPMI medium (HyClone, Logan, Utah) containing HR-IL2 (26.5 units/ml) and 20% fetal calf serum. Infections were performed by adding HIV-1LA1 followed by a further incubation at 37° C., 5% CO2, 1 hr prior to addition of drugs. Assays were performed in 24 well plates (BD Biosciences, Franklin Lakes, N.J.). One ml of supernatant was collected after 5 days in culture and then centrifuged at 12,000 rpm for 2 hr at 4° C. in a Jouan Br43i (Thermo Electron Corp., Marietta, Ohio). The product of the RT assay was quantified using a Packard harvester and direct beta counter and the data were analyzed as previously described (Schinazi et al, 1990).

[4] = test system: acute infection in rhesus macaque macrophages; experiment: cells; conditions: for EC90: read-out: Acute infection in rhesus macaque macrophages EC90
Description: (§3) The data (Shown in Table 5 below) are mean and standard deviations from at least three independent experiments.

[5] = test system: acute infection in rhesus macaque lymphocytes; experiment: cells; conditions: Macaca mulatta, Lymphocyte
Description: as §3

HIV-2 = experiment: microbe, parasite or virus in culture; conditions: Human immunodeficiency virus 2, PBMC
pSTAT3 = experiment: cells
Vero cells = experiment: cells; conditions: Chlorocebus sabaeus, read-out: IC50 in Vero cells *MTT Assay
activated PBM cells = assay type: cell-based, human
Description: The data is shown in FIG. 2, in terms of total cell number (10^6 cells) versus aM drug in medium.
The data is shown in FIG. 3, in terms of cell viability (%) versus aM drug in medium.

latent HIV-1 [6] = experiment: Reactivation of latent HIV-1 in primary human macrophages (PMA, p24 ELISA); assay type: cell-based; conditions: drug applied during reactivation, removed thereafter, within 72 hr post reactivation
wild-type HIV-1xxLAI = experiment: Antiviral potency in primary human lymphocytes, wild type; assay type: cell-based; conditions: Human immunodeficiency virus 1, Lymphocyte, xxLAI, primary human lymphocytes
HIV-1 containing M184V = experiment: microbe, parasite or virus in culture; assay type: cell-based
[7] = test system: PHA stimulated primary human lymphocytes; experiment: Proliferation and viability of PHA stimulated primary human lymphocytes; assay type: cell-based; conditions: 5 days, all concentrations
Protocol: as §1, §2

[8] = Human immunodeficiency virus 1, Lymphocyte

N#CC[C@H](C1CCCC1)n1cc(-c2ncnc3[nH]ccc23)cn1 [Jakafi, Ruxolitinib]
proliferation versus cells exposed to media alone ([1]; 1.0 μM): significantly inhibited
viability versus cells exposed to media alone ([1]; all concentrations): not significantly different
IC50 (PBM cells): > 50 µM
EC50 (HIV-1 containing K65R; [8]): 200 ± 300 nM
EC90 (HIV-1 containing K65R; [8]): 8.5 ± 8.1 µM
FI50 (ratio of EC50 against mutant virus:EC50 against wild-type xxLAI) (HIV-1 containing K65R; K65R): 0.8
FI90 (ratio of EC90 against mutant virus:EC90 against wild-type xxLAI) (HIV-1 containing K65R; K65R): 1.4
CC50 (PHA + IL-2 PBM cells): 3.1 ± 1.7 µM
IC50 (PHA stimulated PBM cells): 9.1 ± 1.3 µM
EC50 (pSTAT1; read-out: EC50 pSTAT1): < 10 nM
EC90 (pSTAT1; read-out: EC90 pSTAT1): < 10 nM
FI50 (ratio of EC50 against mutant virus:EC50 against wild-type xxLAI) ([2]; A62V/V75I/F77L/F116Y/Q151M): 0.1
FI90 (ratio of EC90 against mutant virus:EC90 against wild-type xxLAI) ([2]; A62V/V75I/F77L/F116Y/Q151M): 0.3
EC50 [2, 8]: 30 ± 20 nM
EC90 [2, 8]: 1500 ± 1500 nM
IC50 (Mφ): > 100 µM
inhibition of reactivation of latent HIV-1 (latent HIV-1 [3]): ≥ 50%
EC50 (HIV-1LAI; read-out: Anti-HIV-1 EC50 in acutely infected PBM cells): 100 ± 20 nM
EC90 (HIV-1LAI; read-out: Anti-HIV-1 EC90 in acutely infected PBM cells): 4.7 ± 0.07 µM
EC50 ([4]; Macaca mulatta, Macrophage, read-out: Acute infection in rhesus macaque macrophages EC50): ~400 nM
EC90 ([4]; Macaca mulatta, Macrophage): ~4 µM
EC90 [4]: 4.2 ± 1.3 µM
EC50 ([5]; read-out: Acute infection in rhesus macaque lymphocytes EC50): 90 ± 100 nM
EC90 ([5]; read-out: Acute infection in rhesus macaque lymphocytes EC90): 1300 ± 800 nM
EC50 (HIV-2; read-out: Anti-HIV-2 EC50 in acutely infected PBM cells): 20 ± 10 nM
EC90 (HIV-2; read-out: Anti-HIV-2 EC90 in acutely infected PBM cells): 400 ± 200 nM
EC50 (pSTAT3; read-out: EC50 pSTAT3): < 10 nM
EC90 (pSTAT3; read-out: EC90 pSTAT3): 10 nM
IC50 (Vero cells): 29.3 ± 3.7 µM
total cell proliferation (total cell number) (activated PBM cells): do not affect total cell proliferation
total cell viability (activated PBM cells): do not affect total cell viability
percent inhibition of reactivation of latent HIV-1 versus no drug control (latent HIV-1 [6]): ~35%
EC50 (wild-type HIV-1xxLAI; read-out: EC50): 300 ± 300 nM
EC90 (wild-type HIV-1xxLAI; read-out: EC90): 6.1 ± 7.6 µM
EC90 (HIV-1 containing M184V; [8]): 3.2 ± 2.3 µM
FI50 (ratio of EC50 against mutant virus:EC50 against wild-type xxLAI) (HIV-1 containing M184V; M184V): 1.3
FI90 (ratio of EC90 against mutant virus:EC90 against wild-type xxLAI) (HIV-1 containing M184V; M184V): 0.5
proliferation versus cells exposed to media alone [7]: not significantly different
viability versus cells exposed to media alone [7]: not significantly different
